The text below walks through data of patent publication US7825121B2, “Piperazine derivatives useful as CCR5 antagonists” (Schering Corporation, priority 1999, dated 2010).

In series [1] the target is T1, human CCR5 chemokine receptor (Homo sapiens, UniProt P51681).
T1 construct: expressed in transfected cells; host or cells: NIH 3T3 cells (murine), membranes
The series can be described thus: CCR5 membrane binding assay (inhibition of RANTES binding). As to conditions: 125I-RANTES, membranes from NIH 3T3 cells expressing human CCR5. The method, then: CCR5 Membrane Binding Assay:
A high throughput screen utilizing a CCR5 membrane binding assay identifies inhibitors of RANTES binding. This assay utilizes membranes prepared from NIH 3T3 cells expressing the human CCR5 chemokine receptor which have the ability to bind to RANTES, a natural ligand for the receptor. […] Compounds are serially diluted over a wide range of 0.001 ug/ml to 1 ug/ml and tested in triplicates. Reaction cocktails are harvested through glass fiber filters, and washed thoroughly.
In the table, “Ex. No.” stands for “Example Number” and “nM” stands for “nanomolar.”

Series [2] is described as follows: Profiling of Vicriviroc and metabolites in plasma, urine and feces, human. Type of series: in vivo. The procedure: (§1) HPLC column was maintained at room temperature for all LC-MS and LC-MS^n experiments. The mobile phase, which consisted of 95% 10-mM ammonium acetate (pH 6.0) containing 5% acetonitrile (A) and 95% acetonitrile and 5% water (B), was maintained at a constant flow rate (1 mL/min). For all LC-MS experiments, the column effluent was split to divert 20-25% into TSQ Quantum (ThermoElectron, San Jose, Calif.) mass spectrometer and the balance into a Flow Scintillation Analyzer (FSA) analyzer.
(§2) All LC-MS and LC-MS/MS experiments were performed using a TSQ mass spectrometer (ThermoElectron, San Jose, Calif.) nominally operated under the conditions listed below:
(§3) Radiochromatograms from study samples were examined to locate radioactive peaks corresponding to metabolites. After correcting for the delay time (0.2-0.5 min), each radiolabelled peak was examined for possible molecular ions related to the drug and/or its putative metabolites.

A short description of series [3]: Profiling of Vicriviroc and metabolites in plasma, urine and feces, monkey. It is filed as in vivo, Monkey (Cynomolgus macaque). The method, then:
as §1, §2, §3

Series [4] can be described thus: Profiling of Vicriviroc and metabolites in plasma, urine and feces, rat. It is filed as in vivo, Rat (Sprague Dawley). The procedure:
as §1, §2, §3

Series [5] can be described thus: Excretion of radioactivity after single oral dose of 14C-Vicriviroc, monkey. Type of series: in vivo, Monkey (Cynomolgus macaque). As to conditions: 5 mg/kg single oral, total 0-432 hr.
Procedure: (§4) [drawing 410] was synthesized at Schering-Plough Research Institute (Kenilworth, N.J.) and had >97% radiochemical purity.
(§5) Sample Collection: Urine and feces over selected intervals and blood at selected time points were collected from healthy male volunteers, monkeys and rats through 336-hr, 432-hr and 168-hr post dose, respectively. Radioactivity: Total radioactivity was measured using liquid scintillation spectrometer (LSS). Sample Processing for Profiling and Characterization of Metabolites: Sample Pooling: For each species, plasma samples were pooled across subjects/animals by time point. All the other matrices were first pooled for a desired collection interval within each subject/animal and then across subjects/animals to obtain a composite sample containing >90% of the radioactivity excreted in each respective matrix.
Series [6] in a line: Excretion of radioactivity after single oral dose of 14C-Vicriviroc, rat. Type of series: in vivo, Rat (Sprague Dawley). To be noted: 6 mg/kg single oral, total 0-168 hr.
Procedure: as §4, §5

Where a name gives a salt, the structure may show the parent alone.

T1 sequence (P51681 whole entry): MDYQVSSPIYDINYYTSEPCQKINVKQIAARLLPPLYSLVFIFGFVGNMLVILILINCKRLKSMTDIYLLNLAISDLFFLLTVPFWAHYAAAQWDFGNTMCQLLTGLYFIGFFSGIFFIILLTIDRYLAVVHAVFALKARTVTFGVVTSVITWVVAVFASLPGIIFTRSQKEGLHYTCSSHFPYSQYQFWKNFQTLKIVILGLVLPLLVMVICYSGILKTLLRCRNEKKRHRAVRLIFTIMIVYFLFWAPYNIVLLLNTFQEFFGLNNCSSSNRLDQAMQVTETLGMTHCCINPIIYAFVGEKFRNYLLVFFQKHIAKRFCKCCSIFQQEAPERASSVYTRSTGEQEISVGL

`Cc1ncnc(C)c1C(=O)N1CCC(C)(N2CCN([C@@H](Cc3ccccc3)c3ccc(C(F)(F)F)cc3)[C@@H](C)C2)CC1` displayed a melting point of 187 to 196 °C. For `Cc1ccnc(C)c1C(=O)N1CCC(N2CCN(C(c3ccccc3)c3ccccc3)[C@@H](C)C2)CC1` (as salt: hydrochloride) [Example 3C], the melting point is 180 to 188 °C (dec.). As to `Cc1ccnc(C)c1C(=O)N1CCC(N2CCN(C(c3ccccc3)c3ccccc3)[C@@H](C)C2)CC1` [Example 3C], the affinity in series [1], expressed as Ki, was 9.97 nM.

Compound `CC[C@@H](c1ccc(OC(F)(F)F)cc1)N1CCN(C2CCN(C(=O)c3c(C)ncnc3C)CC2)C[C@@H]1C` [Example 6C] came in with a melting point of 225 °C. The compound also had a Ki in series [1] of 30 nM. On to `Cc1cccc(C)c1C(=O)N1CCC(N2CCN([C@@H](C)c3ccc(I)cc3)[C@@H](C)C2)CC1` [Example 11], for which, in series [1], affinity was put at a Ki of 10.5 nM.

In the case of `Cc1cccc(C)c1C(=O)N1CCC(N2CCN([C@@H](C)c3ccc(Cl)cc3)[C@@H](C)C2)CC1` [Example 13], the melting point was 180 °C (dec.). On to `Cc1cccc(C)c1C(=O)N1CCC(N2CCN([C@@H](C)c3ccccc3)[C@@H](C)C2)CC1` [Example 15], for which the melting point came to 195 °C. Compound `Cc1cccc(C)c1C(=O)N1CCC(N2CCN([C@@H](C)c3ccc(-c4ccccc4)cc3)[C@@H](C)C2)CC1` [Example 16] displayed a melting point of 190 °C. The same compound returned a Ki in series [1] of 60 nM. Regarding `Cc1cccc(C)c1C(=O)N1CCC(N2CCN([C@@H](C)c3ccc(Cc4ccc(Cl)cc4)cc3)[C@@H](C)C2)CC1` [Example 17], the melting point is 170 °C (dec.). Same read-out and setting: the same measure for `CC(=O)c1ccc([C@H](C)N2CCN(C3CCN(C(=O)c4c(N)cccc4Cl)CC3)C[C@@H]2C)cc1` [Example 18]: 210 °C. Turning to `CC(=O)c1ccc([C@H](C)N2CCN(C3(C)CCN(C(=O)c4c(C)cccc4C)CC3)C[C@@H]2C)cc1` [Example 22], the melting point lay in the range of 80 to 85 °C.

The compound `CCC[C@@H](c1ccc(OC(F)(F)F)cc1)N1CCN(C2(C)CCN(C(=O)c3c(C)ncnc3C)CC2)C[C@@H]1C` [Example 30A] yielded a melting point of 241 °C. With `CCC[C@@H](c1ccc(OC(F)(F)F)cc1)N1CCN(C2(C)CCN(C(=O)c3c(C)cc(NC(=O)NCC)cc3C)CC2)C[C@@H]1C` [Example 30B], the melting point is 219 °C. `Cc1ncnc(C)c1C(=O)N1CCC(C)(N2CCN(C(c3ccccc3)c3ccccc3)[C@@H](C)C2)CC1` [Example 30C] displayed a melting point of 175 to 178 °C.

On to `CCNC(=O)Nc1cc(C)c(C(=O)N2CCC(C)(N3CCN(C(c4ccccc4)c4ccccc4)[C@@H](C)C3)CC2)c(C)c1` [Example 30D], for which the melting point lay within 177 to 189 °C. For `C[C@H]1CN(C2(C)CCN(C(=O)C3(c4ccc(C#N)cc4)CC3)CC2)CCN1C(c1ccccc1)c1ccccc1` [Example 30E], the melting point lay within 84 to 90 °C. For `Cc1ncnc(C)c1C(=O)N1CCC(C)(N2CCN(C(c3ccc(C(F)(F)F)cc3)c3ccc(C(F)(F)F)cc3)[C@@H](C)C2)CC1` [Example 30F], the melting point was in the range of 180 to 192 °C. `CCNC(=O)N(C)c1cc(C)c(C(=O)N2CCC(C)(N3CCN(C(c4ccccc4)c4ccccc4)[C@@H](C)C3)CC2)c(C)c1` [Example 30H] gave a melting point of 178 to 188 °C. `CCC[C@@H](c1ccc(OC(F)(F)F)cc1)N1CCN(C2(C)CCN(C(=O)c3c(C)cccc3C)CC2)C[C@@H]1C` [Example 30] came in with a melting point of 237 °C. On to `Cc1ncnc(C)c1C(=O)N1CCC(C)(N2CCN(C(COC3OC(C(=O)O)C(O)C(O)C3O)c3ccc(C(F)(F)F)cc3)C(C)C2)CC1` (centres unmarked) [Example M35, O-desmethyl-VIC-glucuronide], for which the “circulating drug derived component in plasma” value in series [2] (human plasma) is recorded as “prominent circulating metabolite”; in series [3] (monkey plasma), “prominent circulating metabolite”; in series [4] (rat plasma), “only detected in trace quantities”. In addition, the figures for the “% of the dose in urine” value in series [2] (human urine), in series [3] (monkey urine) and in series [4] (rat urine) were 11%, 3% and “less than 1%”, respectively. For the compound `COC[C@@H](c1ccc(C(F)(F)F)cc1)N1CCN(C2(C)CCN(C(=O)c3c(C)ncnc3C)CC2)C[C@@H]1C` [^14C-Vicriviroc, 1-[(4,6-dimethyl-5-pyrimidinyl)carbonyl]-4-[4-[2-methoxy-1 (R)-[4-(trifluoromethyl)phenyl]ethyl]-3(S)-methyl-1-piperazinyl]-4-methylpiperidine], the “Excretion of radioactivity as % of dose, feces” value is 56.4 % of dose in series [5] (monkey female), 48.6 % of dose in series [5] (monkey male), 72.9 % of dose in series [6] (rat female) and 69.1 % of dose in series [6] (rat male). The “Excretion of radioactivity as % of dose, urine” value is given as 25.8 % of dose in series [5] (monkey female), 26.3 % of dose in series [5] (monkey male), 15.6 % of dose in series [6] (rat female) and 18.0 % of dose in series [6] (rat male).

As a reminder, the melting point is the temperature, or range, at which the solid turns liquid. As usually defined, the Ki is a dissociation constant, usually derived from enzyme kinetics or from competition with a known ligand.
